Measured values reported in US20120238105A1, “FORMULATIONS FOR THE PRODUCTION OF ELECTRONIC DEVICES” (Merck Patent GmbH, priority 2009, published 2012).

Assay: solubility of matrix compounds for producing devices from solution
Assay type: physicochemical
Conditions: compounds dissolved in toluene or chlorobenzene for spin coating of the emission layer (matrix with 5% by weight emitter)
Protocol: Materials according to the invention are used from solution, where they result in simple devices having nevertheless good properties. The production of such components is based on the production of polymeric light-emitting diodes (PLEDs), which has already been described many times in the literature (for example in WO 2004/037887 A2). In the present case, the compounds according to the invention are dissolved in toluene or chlorobenzene. The concentration employed in the examples given here is 20% by weight of the emitter (T-1 or compound 18) and 80% by weight of the matrix materials (compounds 5 to 17). The typical solids content of such solutions is between 16 and 25 g/l if, as here, the typical layer thickness of 80 nm for a device is to be achieved by means of spin coating.
The concentration employed in the examples given here is 5% by weight of the emitter (SEB-095, Merck) and 95% by weight of the matrix materials (compounds 28 and 29). The typical solids content of such solutions is […] if, as here, the typical layer thickness of 50 nm for a device is to be achieved by means of spin coating.

Structure (SMILES)	solubility
c1ccc(-c2cc(-c3ccccc3)cc(-c3c4ccccc4c(-c4cccc5c4ccc4cc6ccccc6cc45)c4ccccc34)c2)cc1 [Compound 28]	improved solubility
c1ccc(-c2cccc(-c3c4ccccc4c(-c4cccc5c4ccc4cc6ccccc6cc45)c4ccccc34)c2)cc1 [Compound 27]	poor solubility
c1ccc(-c2cc(-c3ccccc3)cc(-c3cccc(-c4c5ccccc5c(-c5cccc6c5ccc5cc7ccccc7cc56)c5ccccc45)c3)c2)cc1 [Compound 29]	improved solubility
c1ccc(-c2c3ccccc3c(-c3cccc4c3ccc3cc5ccccc5cc34)c3ccccc23)cc1 [Compound 25]	poor solubility
